Experimental data taken from patent US12655437B2, “Compositions and methods for modulating the gastrointestinal tract using bile salt hydrolases” (North Carolina State University, priority 2019, dated 2026).

Key:
[1] = test system: L. acidophilus ΔbshAB; test: Growth of L. acidophilus bsh mutants in MRS media supplemented with bile acids; type: cell-based, Lactobacillus acidophilus
Experimental: FIG. 12: L. acidophilus bshA and bshB contribute to bile acid detoxification in a substrate dependent manner. Growth of BSH mutants in the presence of bile acids. To evaluate the role of BSH activity during L. acidophilus growth, single and double BSH mutants were grown in MRS media supplemented with bile acids and growth was measured by OD600 nm.
FIGS. 13A-13G: L. acidophilus bshA and bshB contribute to bile acid detoxification in a substrate and concentration dependent manner.
FIGS. 12-14 include representative results of experiments conducted to evaluate the role of BSH activity during L. acidophilus growth. […] The L. acidophilus strains with deletion in bshA, bshB, and bshAB were tested in plate assays and growth curves were determined. The ΔbshA, ΔbshB, and ΔbshAB L. acidophilus and L. gasseri strains were grown in the presence of conjugated bile acids to test BSH contributions to bile acid detoxification. FIG. 12 provides growth curves of L. acidophilus mutants grown in a variety of bile acid concentrations. As shown, single and double BSH mutants (ΔbshA and ΔbshB) were grown in MRS media supplemented with bile acids.
(§1) Error bars represent s.d. from n=4 independent experiments. Dashed lined denotes the approximate starting CFUs/mL at 0 h. Exogenous recombinant LaBSHa and LaBSHb (LaBSHab) or LgBSHa and LgBSHb (LgBSHab) were supplemented to cultures in equimolar amounts to L. acidophilus ΔbshAB or L. gasseri ΔbshAB growths to functionally complement ΔbshAB strains.

[2] = test system: C. difficile; test: Growth of C. difficile anaerobically in BHIS medium supplemented with bile acids and purified BSH; type: cell-based, Clostridioides difficile; conditions: BHIS media supplemented with the bile acid alone
Experimental: FIGS. 22A-22C: BSH specificity can leveraged to inhibit Clostridioides difficile in a conjugated bile acid substrate-dependent manner. (A) Recombinantly expressed and purified L. johnsonii BSHs were assayed for deconjugation with GCDCA and TCDCA. Specific activities for each BSH were determined by quantifying the rate of amino acid release by Ninhydrin assay. (B, C) Growth of C. difficile anaerobically in BHIS medium supplemented with GCDCA, TCDCA, or CDCA in combination with purified LjoBSHa or LjoBSHc.
As shown in FIGS. 9-11, recombinant BHSs were overexpressed and purified to homogeneity, and experiments were conducted to evaluate their activity. Two recombinant BSH enzymes were used for this assay. […] TCDCA was chosen as a conjugated bile acid to be used in the growth assays due to C. difficile's sensitivity to the CDCA that is released from BSH activity. […] A high dosage of LjoBSHa is needed to overcome its catalytic deficiency (FIG. 9).
TCDCA was chosen as a conjugated bile acid to be used in this growth (FIGS. 22B-22C) assay due to C. difficile's sensitivity to the CDCA that is released from BSH activity. […] A high dosage of LjoBSHa is needed to overcome its catalytic deficiency.

[3] = test system: C. difficile; conditions: cited from earlier work
[4] = test system: L. gasseri ΔbshAB; test: Growth of L. gasseri bsh mutants in MRS media supplemented with bile acids; type: cell-based, Lactobacillus gasseri
Experimental: as §1, with “bars represent standard deviation (s.d.) from n=4” for “bars represent s.d. from n=4”, “amounts to (A) L. acidophilus” for “amounts to L. acidophilus”, “ΔbshAB or (B) L. gasseri” for “ΔbshAB or L. gasseri”
The L. acidophilus strains with deletion in bshA, bshB, and bshAB were tested in plate assays and growth curves were determined. The ΔbshA, ΔbshB, and ΔbshAB L. acidophilus and L. gasseri strains were grown in the presence of conjugated bile acids to test BSH contributions to bile acid detoxification. FIG. 12 provides growth curves of L. acidophilus mutants grown in a variety of bile acid concentrations.

Structure (SMILES) | growth of L. acidophilus ΔbshAB ([1]; 5 mM bile acid in MRS) | C. difficile growth [2] | growth of L. acidophilus ΔbshAB ([1]; 2.5 mM bile acid in MRS) | also measured
C[C@H](CCC(=O)NCCS(=O)(=O)O)[C@H]1CC[C@H]2[C@@H]3CC[C@@H]4C[C@H](O)CC[C@]4(C)[C@H]3C[C@H](O)[C@]12C [TDCA, taurodeoxycholate] | significantly inhibited | – | – | –
C[C@H](CCC(=O)O)[C@H]1CC[C@H]2[C@@H]3[C@H](O)C[C@@H]4C[C@H](O)CC[C@]4(C)[C@H]3CC[C@]12C [CDCA, chendeoxycholate] | – | complete inhibition | – | C. difficile spore germination [3]: inhibits; C. difficile vegetative cells [3]: kills
C[C@H](CCC(=O)NCC(=O)O)[C@H]1CC[C@H]2[C@@H]3CC[C@@H]4C[C@H](O)CC[C@]4(C)[C@H]3C[C@H](O)[C@]12C [GDCA, glycodeoxycholate] | – | – | significantly inhibited | growth of L. gasseri ΔbshAB ([4]; 1.25 mM bile acid in MRS): significantly inhibited
C[C@H](CCC(=O)NCC(=O)O)[C@H]1CC[C@H]2[C@@H]3[C@H](O)C[C@@H]4C[C@H](O)CC[C@]4(C)[C@H]3CC[C@]12C [GCDCA, glycochendeoxycholate] | – | – | significantly inhibited | growth of L. gasseri ΔbshAB ([4]; 2.5 mM bile acid in MRS): significantly inhibited
C[C@H](CCC(=O)NCCS(=O)(=O)O)[C@H]1CC[C@H]2[C@@H]3[C@H](O)C[C@@H]4C[C@H](O)CC[C@]4(C)[C@H]3CC[C@]12C [TCDCA, taurochendeoxycholate] | less inhibited | no inhibition of growth | – | effect on C. difficile ([3]; bile acid alone): does not affect C. difficile
C[C@H](CCC(=O)NCC(=O)O)[C@H]1CC[C@H]2[C@@H]3[C@H](O)C[C@@H]4C[C@H](O)CC[C@]4(C)[C@H]3C[C@H](O)[C@]12C [GCA, glycocholate] | less inhibited | – | – | growth of L. gasseri ΔbshAB ([4]; 5 mM bile acid in MRS): significantly less inhibited
